Holding throughout (assay): Affymetrix expression profiling of treated and untreated cell lines (restoration of gene expression)
Common to all, as to format: cell-based, human

One assay has as its system SCNN1B. The following applies: cell line LS123, treated vs untreated. How it is done:
(§1) Twenty well characterized, microdissected samples of colorectal cancer tissue were obtained from consenting patients. A second set of twenty, microdissected samples of normal adjacent colon tissue were also obtained. Total RNA was extracted from these samples using RNeasy kits (QIAGEN, Valencia, Calif.) according to the manufacturer's instructions. Expression profiling was performed using the GeneChip expression arrays from Affymetrix (Santa Clara, Calif.). Reverse transcription, second-strand synthesis, and probe generation was accomplished by standard Affymetrix protocols. The Human Genome U133A GeneChip, which contains more than 15,000 substantiated human genes, was hybridized, washed, and scanned according to Affymetrix protocols. Changes in cellular mRNA levels in the cancerous tissues were compared with mRNA levels in the normal colon tissues. GeneSpring v4.2 (Silicon Genetics, Redwood City, Calif.) was used to normalize and scale results and compare gene expression levels in the cancer tissue relative to that in the normal tissue.
(§2) Further support for the clinical importance of these sites comes from the changes seen in gene expression of the genes after treatment of cell lines with 5-aza-2′-deoxyctyidine. These values were obtained from Affymetrix expression profiling of treated and untreated cell lines using the procedure described above.

The test system of a further assay is GPX3. The following applies: cell line LS174T, treated vs untreated. How it is done: as §1, §2
A further assay deals with CA4. As to conditions: cell line LS174T, treated vs untreated. The method, then: as §1, §2

The results in this text go back to US20100136541A1, “IDENTIFICATION AND VERIFICATION OF METHYLATION MARKER SEQUENCES” (Siemens Healthcare Diagnostics Inc., priority 2003, published 2010).

In the case of `Nc1ncn([C@H]2C[C@H](O)[C@@H](CO)O2)c(=O)n1` [5-aza-2′-deoxycytidine], the “restoration of gene expression of SCNN1B after treatment” value with SCNN1B is listed as 4.1 fold. The “restoration of gene expression of GPX3 after treatment” value in the assay with GPX3 is 8.5 fold. Moreover, the “restoration of gene expression of CA4 after treatment” value with CA4 stood at 2.8 fold.
